In ChEMBL document CHEMBL5579882, “Synthesis and Photodynamic Activities of Pyridine- or Pyridinium-Substituted Aza-BODIPY Photosensitizers” (J Med Chem, 2024):
Activity calls are given as the source filed them. The rule behind the calls is not given here.

Columns and labels:
[1] = Dark cytotoxicity against human HeLa cells assessed as inhibition of cell viability incubated for 3 hrs by CCK8 assay; format: toxicity, cell-based
[2] = Dark cytotoxicity against human HepG2 cells assessed as inhibition of cell viability incubated for 3 hrs by CCK8 assay; format: toxicity, cell-based
HeLa [3] = test: Antitumor activity against human HeLa cells xenografted in nude BALB/c nu/nu mouse assessed as decrease in tumor growth at 2.5 umol/kg, iv with light irradiation of 30 J/cm2 for 1 hr measured after 24 hrs; format: functional, organism-based; conditions: dose 2.5 µmol/kg, time 25.0 hrs
HeLa [4] = test: Phototoxicity against human HeLa cells assessed as inhibition of cell viability preincubated for 3 hrs followed by photo-irradiation of 54 J/cm2 for 24 hrs by CCK8 assay; format: functional, cell-based; conditions: light or radiation study
HepG2 = test: Phototoxicity against human HepG2 cells assessed as inhibition of cell viability preincubated for 3 hrs followed by photo-irradiation of 54 J/cm2 for 24 hrs by CCK8 assay; format: functional, cell-based; conditions: HepG2, light or radiation study
HeLa [5] = test: Induction of ROS generation in human HeLa cells assessed as increase in green fluorescence incubated for 3 hrs followed by light irradiation of 54 J/cm2 by H2DCFDA staining based analysis; format: functional, cell-based; conditions: dose 25-200 nM
[6] = Drug uptake in human HeLa cells assessed as fold increase in fluorescence intensity at 5 uM incubated for 3 hrs by fluorescence imaging based analysis relative to control; format: ADME, cell-based
HeLa [7] = test: Induction of ROS generation in human HeLa cells without light irradiation at 200 nM incubated for 3 hrs by H2DCFDA staining based analysis; format: functional, cell-based
[8] = Drug uptake in mitochondria of human HeLa cells at 5 uM incubated for 3 hrs by MitoTracker Green FM dye based analysis; format: ADME
[9] = Drug uptake in lysosome of human HeLa cells at 5 uM incubated for 3 hrs by LysoTracker Green DND-26 dye based analysis; format: ADME, subcellular
[10] = Drug uptake in endoplasmic reticulum of human HeLa cells at 5 uM incubated for 3 hrs by ER-Tracker Green dye based analysis; format: ADME, subcellular
[11] = Drug uptake in lipid droplet of human HeLa cells at 5 uM incubated for 3 hrs by BODIPY 493/503 dye based analysis; format: ADME, subcellular
HeLa [12] = test: Induction of lipid peroxidation in human HeLa cells assessed as increase in green fluorescence with a light dose of 54 J/cm2 at 100 to 400 nM incubated for 3 hrs by BODIPY 581/591 C11 dye based analysis; format: functional, cell-based; conditions: dose 100-400 nM
HeLa [13] = test: Induction of cell death in human HeLa cells under dark condition upto 400 nM incubated for 3 hrs by Calcein-AM/PI staining based analysis; format: functional
HeLa [14] = test: Induction of cell death in human HeLa cells assessed as increase in bright red signal at 400 nM incubated for 3 hrs followed by light irradiation of 54 J/cm2 by Calcein-AM/PI staining based analysis; format: functional
HeLa [15] = test: Induction of cell death in human HeLa cells assessed as increase in bright red signal at 400 nM incubated for 3 hrs followed by light irradiation of 54 J/cm2 in presence of Lip-1 inhibitor by Calcein-AM/PI staining based analysis; format: functional
HeLa [16] = test: Induction of cell death in human HeLa cells assessed as increase in bright red signal at 400 nM incubated for 3 hrs followed by light irradiation of 54 J/cm2 in presence of Fer-1 inhibitor by Calcein-AM/PI staining based analysis; format: functional
HeLa [17] = test: Induction of cell death in human HeLa cells assessed as increase in bright red signal at 400 nM incubated for 3 hrs followed by light irradiation of 54 J/cm2 in presence of DFO inhibitor by Calcein-AM/PI staining based analysis; format: functional
[18] = Biodistribution in liver of nude BALB/c nu/nu mouse bearing human HeLa cells at 2.5 umol/kg, iv measured for 3 hrs by IVIS analysis; format: ADME, organism-based; conditions: in vivo, dose 2.5 µmol/kg
[19] = Biodistribution in lung of nude BALB/c nu/nu mouse bearing human HeLa cells at 2.5 umol/kg, iv measured for 3 hrs by IVIS analysis; format: ADME, organism-based; conditions: in vivo, dose 2.5 µmol/kg
[20] = Biodistribution in spleen of nude BALB/c nu/nu mouse bearing human HeLa cells at 2.5 umol/kg, iv measured for 3 hrs by IVIS analysis; format: ADME, organism-based; conditions: in vivo, dose 2.5 µmol/kg
[21] = Biodistribution in kidney of nude BALB/c nu/nu mouse bearing human HeLa cells at 2.5 umol/kg, iv measured for 3 hrs by IVIS analysis; format: ADME, organism-based; conditions: in vivo, dose 2.5 µmol/kg
HeLa [22] = test: Biodistribution in human HeLa cells xenografted in nude BALB/c nu/nu mouse at 2.5 umol/kg, iv measured for 3 hrs by IVIS analysis; format: ADME, organism-based; conditions: in vivo, dose 2.5 µmol/kg
[23] = Biodistribution in skin of nude BALB/c nu/nu mouse bearing human HeLa cells at 2.5 umol/kg, iv measured for 3 hrs by IVIS analysis; format: ADME, organism-based, Skin of body; conditions: in vivo, dose 2.5 µmol/kg
[24] = Toxicity in nude BALB/c nu/nu mouse bearing human HeLa cells assessed as steady body weight increment at 2.5 umol/kg, iv with light irradiation at 30 J/cm2 for 1 hr measured for 24 hrs; format: organism-based; conditions: in vivo, 25 h, dose 2.5 µmol/kg
[25] = Toxicity in nude BALB/c nu/nu mouse bearing human HeLa cells assessed as drug tolerance at 2.5 umol/kg, iv with light irradiation of 30 J/cm2 for 1 hr measured for 24 hrs; format: organism-based; conditions: in vivo, 25 h, dose 2.5 µmol/kg
[26] = Toxicity in nude BALB/c nu/nu mouse bearing human HeLa cells assessed as pathological change in heart at 2.5 umol/kg, iv with light irradiation of 30 J/cm2 for 1 hr measured for 24 hrs by H and E staining based analysis; format: organism-based; conditions: in vivo, 25 h, dose 2.5 µmol/kg
[27] = Toxicity in nude BALB/c nu/nu mouse bearing human HeLa cells assessed as pathological change in lung at 2.5 umol/kg, iv with light irradiation of 30 J/cm2 for 1 hr measured for 24 hrs by H and E staining based analysis; format: organism-based; conditions: in vivo, 25 h, dose 2.5 µmol/kg
[28] = Toxicity in nude BALB/c nu/nu mouse bearing human HeLa cells assessed as pathological change in liver at 2.5 umol/kg, iv with light irradiation of 30 J/cm2 for 1 hr measured for 24 hrs by H and E staining based analysis; format: organism-based; conditions: in vivo, 25 h, dose 2.5 µmol/kg
[29] = Toxicity in nude BALB/c nu/nu mouse bearing human HeLa cells assessed as pathological change in spleen at 2.5 umol/kg, iv with light irradiation of 30 J/cm2 for 1 hr measured for 24 hrs by H and E staining based analysis; format: organism-based; conditions: in vivo, 25 h, dose 2.5 µmol/kg
[30] = Toxicity in nude BALB/c nu/nu mouse bearing human HeLa cells assessed as pathological change in kidney at 2.5 umol/kg, iv with light irradiation of 30 J/cm2 for 1 hr measured for 24 hrs by H and E staining based analysis; format: organism-based; conditions: in vivo, 25 h, dose 2.5 µmol/kg
HeLa [31] = test: Antitumor activity against human HeLa cells xenografted in nude BALB/c nu/nu mouse assessed as pathological damage in tumor at 2.5 umol/kg, iv with light irradiation of 30 J/cm2 for 1 hr measured after 24 hrs by H and E staining based analysis; format: functional, organism-based; conditions: dose 2.5 µmol/kg, time 25.0 hrs
[32] = Drug uptake in human HeLa cells assessed as increase in red fluorescence signal at 5 uM incubated for 3 hrs by fluorescence imaging based analysis; format: ADME, cell-based

## C=Cc1c(C)c2cc3nc(c(CC(=O)O)c4[nH]c(cc5nc(cc1[nH]2)C(C)=C5CC)c(C)c4C(=O)O)[C@@H](CCC(=O)O)[C@@H]3C [CHLORIN E6]
[1]
  IC50 at 3 h: > 50000 nM
[2]
  IC50 at 3 h: > 50000 nM
HeLa [3]
  Activity: inactive

## COc1ccc(C2=[N+]3C(=Nc4c(-c5ccncc5)c5c(n4[B-]3(F)F)-c3ccc(OC)cc3CC5)C(c3ccccc3)=C2I)cc1
[1]
  IC50 at 3 h: 37200 nM
HeLa [4]
  IC50: 33.9 nM
[2]
  IC50 at 3 h: > 50000 nM
HepG2
  IC50: 35.8 nM

## COc1ccc(-c2c(I)c(-c3ccccn3)c3n2[B-](F)(F)[N+]2=C4C(=C(c5ccccc5)C2=N3)CCc2cc(OC)ccc24)cc1
[1]
  IC50 at 3 h: 17900 nM
HeLa [4]
  IC50: 12.1 nM
[2]
  IC50 at 3 h: > 50000 nM
HepG2
  IC50: 7.2 nM

## COc1ccc(-c2c(I)c(-c3cccc[n+]3C)c3n2[B-](F)(F)[N+]2=C4C(=C(c5ccccc5)C2=N3)CCc2cc(OC)ccc24)cc1
[1]
  IC50 at 3 h: 6100 nM
HeLa [4]
  IC50: 118 nM

## COc1ccc(C2=[N+]3C(=Nc4c(-c5cccnc5)c5c(n4[B-]3(F)F)-c3ccc(OC)cc3CC5)C(c3ccccc3)=C2I)cc1
[1]
  IC50 at 3 h: 37400 nM
HeLa [4]
  IC50: 19.1 nM
[2]
  IC50 at 3 h: > 50000 nM
HepG2
  IC50: 7.5 nM

## COc1ccc(-c2c(I)c(-c3cccnc3)c3n2[B-](F)(F)[N+]2=C4C(=C(c5ccccc5)C2=N3)CCc2cc(OC)ccc24)cc1
[1]
  IC50 at 3 h: > 50000 nM
HeLa [4]
  IC50: 10.4 nM
[2]
  IC50 at 3 h: > 50000 nM
HepG2
  IC50: 6.9 nM
HeLa [5]
  Activity: Dose-Dependent Effect
[6]
  fold change (FC): 6
HeLa [7]
  Activity: inactive
[8]
  Drug uptake: Not Active
[9]
  Drug uptake: Not Active
[10]
  Drug uptake: Not Active
[11]
  Drug uptake: Active
HeLa [12]
  Activity: Active
HeLa [13]
  Activity: inactive
HeLa [14]
  Activity: Active
HeLa [15]
  Activity: inactive
HeLa [16]
  Activity: inactive
HeLa [17]
  Activity: Active
[18]
  Drug uptake: Active
[19]
  Drug uptake: Active
[20]
  Drug uptake: Active
[21]
  Drug uptake: Active
HeLa [22]
  Drug uptake: Active
[23]
  Drug uptake: Not Active
HeLa [3]
  Activity: Active
[24]
  Activity: Non-Toxic
[25]
  Activity: Non-Toxic
[26]
  Activity: Non-Toxic
[27]
  Activity: Non-Toxic
[28]
  Activity: Non-Toxic
[29]
  Activity: Non-Toxic
[30]
  Activity: Non-Toxic
HeLa [31]
  Activity: Active

## COc1ccc(-c2c(I)c(-c3cc[n+](C)cc3)c3n2[B-](F)(F)[N+]2=C4C(=C(c5ccccc5)C2=N3)CCc2cc(OC)ccc24)cc1
[1]
  IC50 at 3 h: 3300 nM
HeLa [4]
  IC50: 129 nM

## COc1ccc(C2=[N+]3C(=Nc4c(-c5ccc[n+](C)c5)c(I)c(-c5ccc(OC)cc5)n4[B-]3(F)F)C(c3ccccc3)=C2)cc1
[1]
  IC50 at 3 h: 11200 nM
HeLa [4]
  IC50: 214 nM

## COc1ccc(-c2c(I)c(-c3ccc[n+](C)c3)c3n2[B-](F)(F)[N+]2=C4C(=C(c5ccccc5)C2=N3)CCc2cc(OC)ccc24)cc1
[1]
  IC50 at 3 h: 1200 nM
HeLa [4]
  IC50: 6 nM

## COc1ccc(C2=[N+]3C(=Nc4c(-c5ccccc5)c5c(n4[B-]3(F)F)-c3ccc(OC)cc3CC5)C(c3ccccc3)=C2I)cc1
[1]
  IC50 at 3 h: > 50000 nM
[2]
  IC50 at 3 h: > 50000 nM
[32]
  Drug uptake: Active
HeLa [3]
  Activity: Active

## COc1ccc(C2=[N+]3C(=Nc4c(-c5ccccc5)c(Br)c(-c5ccc(OC)cc5)n4[B-]3(F)F)C(c3ccccc3)=C2Br)cc1
[1]
  IC50 at 3 h: 41700 nM
HeLa [4]
  IC50: 64.2 nM

## COc1ccc(C2=[N+]3C(=Nc4c(-c5cccnc5)c(I)c(-c5ccc(OC)cc5)n4[B-]3(F)F)C(c3ccccc3)=C2)cc1
[1]
  IC50 at 3 h: 17100 nM
HeLa [4]
  IC50: 42.9 nM

## COc1ccc(-c2c(I)c(-c3ccncc3)c3n2[B-](F)(F)[N+]2=C4C(=C(c5ccccc5)C2=N3)CCc2cc(OC)ccc24)cc1
[1]
  IC50 at 3 h: > 50000 nM
HeLa [4]
  IC50: 6.1 nM
[2]
  IC50 at 3 h: > 50000 nM
HepG2
  IC50: 11.1 nM

## COc1ccc(C2=[N+]3C(=Nc4c(-c5ccc[n+](C)c5)c5c(n4[B-]3(F)F)-c3ccc(OC)cc3CC5)C(c3ccccc3)=C2I)cc1
[1]
  IC50 at 3 h: 2300 nM
HeLa [4]
  IC50: 41.8 nM

## COc1ccc(C2=[N+]3C(=Nc4c(-c5ccncc5)c(I)c(-c5ccc(OC)cc5)n4[B-]3(F)F)C(c3ccccc3)=C2)cc1
[1]
  IC50 at 3 h: 20600 nM
HeLa [4]
  IC50: 50.1 nM
